Test results: patent US6630075B2, “Use of fluorinated ketones in fire extinguishing compositions” (3M Innovative Properties Company, priority 1999, dated 2003)

Legend:
[1] = system: mice; assay: short term inhalation tests with mice; type: in vivo; conditions: mice exposed for four hours at 50,000 ppm in air
[2] = manual suppression full-scale streaming test, UL Standard 711 pan fires; conditions: heptane, 60 sec pre-burn
From the text: These two examples were run to illustrate the fire performance of a fluorinated ketone of this invention, CF3CF2C(O)CF(CF3)2 (the fluorinated ketone as prepared in Example 1), using a manual suppression full-scale streaming test for a clean extinguishing agent.
For each example, a standard off-the-shelf Amerex 131b HALON™ 1211 handheld extinguisher was used to introduce the extinguishing composition to the fire. The extinguisher was equipped with a standard ½ in (1.3 cm) nominal diameter rubber hose with a clean extinguishing agent nozzle attached to the end. In each case, the composition was super-pressurized using dry nitrogen at 130-150 psi (900-1040 kPa).
Both fire extinguishing tests were run following essentially the same test procedures and conditions as outlined in UL Standard 711 for the 2B and 5B pan fire scenarios, as normally conducted for UL approval at Underwriters Laboratories, Inc., Northbrook, Ill. The only deviation from that test procedure was that the fire tests for these examples were conducted outside. The fire test pans for the respective fires were sized to be 2.5 times larger than the ultimate extinguisher rating. For example, a 2B UL-rated extinguisher rating requires a skilled firefighter to be able to extinguish a 5 ft^2 (0.46 m^2) fire, a 5B UL-rated extinguisher rating requires extinguishing a 12.5 ft^2(1.16 m^2) fire, etc. For both examples, the UL specified pans were 12 in (30 cm) deep, into which was introduced 4.0 in (10 cm) of water, onto which was introduced 2 in (5 cm) of commercial grade heptane for fuel, leaving a 6 in (15 cm) freeboard above the fuel surface. Each fire was allowed to pre-burn 60 seconds before extinguishing commenced, using an agent flow rate of 0.75-0.80 kg/sec. The discharge time for the extinguishing of the fire was recorded as was the amount of agent discharged.

[3] = total flooding evaluation in 1.28 m^3 enclosure (Ohmic Heating Test procedure); conditions: 1000 g agent, nitrogen 50 psi
From the text: This example was run to evaluate the fire performance of a fluorinated ketone of this invention, CF3CF2C(O)CF(CF3)2 (the fluorinated ketone as prepared in Example 1), in a total flooding evaluation for a clean extinguishing agent.
For this evaluation, a 1.28 m^3 (0.915 m×0.915 m×1.525 m) steel reinforced polycarbonate “box” enclosure was used, into which a fixed piping system, normally designed to deliver a gaseous clean extinguishing agent, was filled instead with a composition that is liquid at room temperature and discharged into the “box” to extinguish a fire. Using this modified system and procedure, the liquid fluorinated ketone used, CF3CF2C(O)CF(CF3)2, could be discharged into the enclosure indirectly in the same manner as could a gaseous clean extinguishing agent and thus allow the liquid agent to extinguish an obstructed fire located remotely in the enclosure.
In this modified procedure, a Swagelok Whitey 2000 mL cylinder was filled with 1000 g of CF3CF2C(O)CF(CF3)2 and was super-pressurized with nitrogen to 50 psi (345 kPa). Attached to the bottom of the cylinder was a 0.25 in (0.6 cm) Swagelok Whitey SS1RFA-A stainless steel angle valve, to which was fixed 34 in (86.4 cm) of nominal 0.25 in (6.5 mm) piping arrangement, including a 0.25 in (6.5 mm) Jamesbury Clincher ¼-turn ball valve. The piping was connected to a Bete NF 0500 square edge orifice nozzle. […]

[4] = Micro-Cup Burner Test (extinguishing concentration; Mass Ratio Calculation vs HALON 1211)
From the text: The Micro-Cup Burner Test is a laboratory test which measures the extinguishing ability of an agent based on the quantity of agent required to extinguish a fire under the following test conditions. The Micro-Cup Burner Test utilizes a quartz concentric-tube laminar-diffusion flame burner (micro-cup burner, of similar design to the above-described cup apparatus) aligned vertically with all flows upward. A fuel, typically propane unless otherwise specified, flows at 10.0 sccm (standard cubic centimeters per minute) through a 5-mm I.D. inner quartz tube which is centered in a 15-mm I.D. quartz chimney. The chimney extends 4.5 cm above the inner tube. Air flows through the annular region between the inner tube and the chimney at 1000 sccm. Prior to the addition of extinguishing composition, a visually stable flame is supported on top of the inner tube, and the resulting combustion products flow out through the chimney. An extinguishing composition to be evaluated is introduced into the air stream upstream of the burner. Liquid compositions are introduced by a syringe pump (which is calibrated to within 1%) and are volatilized in a heated trap. Gaseous compositions are introduced via a mass-flow controller to the air stream upstream from the burner. For consistency, the air-gaseous composition mixture then flows through the heated trap prior to its introduction to the flame burner. All gas flows are maintained by electronic mass-flow controllers which are calibrated to within 2%. The fuel is ignited to produce a flame and is allowed to burn for 90 seconds. After 90 seconds, a specific flow rate of composition is introduced, and the time required for the flame to be extinguished is recorded. The reported extinguishing concentrations are the recorded volume % of extinguishing composition in air required to extinguish the flame within an average time of 30 seconds or less.
The above-mentioned cup burner test measures the performance of an extinguishing composition by determining the minimum volume percent of composition in air required to extinguish a test fire. However, it is often desirable to directly compare the fire performance of an experimental extinguishing composition (e.g., a fluorinated ketone) against the performance of a state-of-the-art extinguishing composition, such as HALON™ 1211 fire extinguishing agent (CF2ClBr, a bromochlorofluorocarbon). One way to make such a comparison is to derive the mass ratio of experimental composition to HALON™ 1211 fire extinguishing agent from the volume percentages of each composition required for extinguishing. The mass ratio can be calculated by dividing the experimental composition's extinguishing volume percent by the HALON™ 1211 agent's extinguishing volume percent and multiplying the resulting quotient (which, according to the ideal gas law, also represents the ratio of mole percents) times the weight average molecular weight of the experimental composition divided by the molecular weight of HALON™ 1211 agent (165 g/mole).
In Comparative Example C1, the extinguishing concentration (volume % in air) of HALON™ 1211 fire extinguishing agent was determined as using the Micro-Cup Burner Test.
In Examples 1-16, the extinguishing concentration of several perfluorinated ketones was also determined using the Micro-Cup Burner Test. The mass ratio as compared to HALON™ 1211 fire extinguishing agent was then calculated using the Mass Ratio Calculation.
In Comparative Examples C2-C11, various fluorinated extinguishing compositions known in the art (hydrofluorocarbons, perfluorocarbons, hydrochlorofluorocarbons, hydrofluoroethers, and iodofluorocarbons) were evaluated for their extinguishing concentration, and subsequently their mass ratios were calculated with respect to HALON™ 1211 agent. […]

**Q.** Which acute toxicity [1] does the source give for `O=C(C(F)(F)C(F)(F)F)C(F)(C(F)(F)F)C(F)(F)F` [Example 1, 1,1,1,2,4,4,5,5,5-nonafluoro-2-trifluoromethyl-butan-3-one] here?
**A.** The acute toxicity was “low acute toxicity”.

**Q.** And the “Agent Discharged” value ([2]; UL 2B pan)?
**A.** The value was 2.59 kg.

**Q.** And the “Discharge Time” value ([2]; UL 2B pan)?
**A.** The value was 3.5 s.

**Q.** And the “Agent Discharged” value ([2]; UL 5B pan)?
**A.** Its value is 2.87 kg.

**Q.** What about the “Discharge Time” value ([2]; UL 5B pan) of the same compound?
**A.** Its value is 3.8 s.

**Q.** What about the “time to extinguishing of the obstructed fire from the beginning of agent discharge” value [3] of the same compound?
**A.** The value was ≤ 35 s.

**Q.** What about the “Mass Ratio to HALON™ 1211” value ([4]; calculated from extinguishing volume % and molecular weight relative to HALON 1211 (165 g/mole)) of the same compound?
**A.** Its value is 1.86.

**Q.** What about the “Ext. Conc. (vol %)” value ([4]; volume % in air required to extinguish the flame within an average time of 30 seconds or less, propane fuel) of the same compound?
**A.** Its value is 3.5 vol %.
